Data on 4 compounds can be found in paper PMC6547440, “The HRP3 PWWP domain recognizes the minor groove of double-stranded DNA and recruits HRP3 to chromatin” (Nucleic Acids Research, 2019).

{FAM} = FAM (fluorescein) label on dsDNA for MST

As usually defined, the Kd is a measure of binding affinity in units of concentration.

For data set [1], the system named is HRP3 PWWP. Nature of the data set: DNA geometry analysis of the PWWP/DNA complex structures. Further details: species or system human. The protocol:
DNA geometry was analysed with the 3DNA ([42]) and Curves+ ([43]) programs. Electrostatic potentials were calculated using the DelPhi program ([44]). The minor groove width was measured according to the method described ([45]). In detail, the distances between the ith (i indicates the number of the base from one chain) phosphate atom from one chain and the (i + 4)th atom from the paired chain were used to describe the minor groove width at the ith base. Electrostatic potentials were calculated at the midpoints between the above phosphate atom pairs used to calculate the minor groove widths.

The subject of data set [2] is HRP3 PWWP. Put plainly: MST binding of 5′-FAM-labelled dsDNAs to HRP3 PWWP. Also noted: species or system human. Particulars: 16-mer-TA versus 16-mer-random and 16-mer-GC. The protocol:
All Mircoscale thermophoresis (MST) experiments were performed on a Monolith NT115 machine with 20% MST power and 100% LED power. All protein and DNA samples were dissolved in solution containing 50 mM KCl, 10 mM sodium cacodylate at pH 6.5 and 2 mM DTT. The MST samples were prepared by mixing HRP3(1-110) at concentrations ranging from 3 nM to 100 μM into a solution containing 200 nM 5′-FAM-labelled dsDNA. Experiments were performed using Monolith NT115 Standard Treated Capillaries, MO-K002. Dissociation constants were fitted with the MO Affinity Analysis software.
The DNA sequences used in this assay are as follows: 5′-FAM-16TA: 5′-[…]-3′; 5′-FAM-16GC: 5′-[…]-3′; and 5′-FAM-16random: 5′-[…]-3′.

Data set [3] relates to HRP3 PWWP. Put plainly: ITC of HRP3 PWWP with dsDNAs. It counts as binding, human. The note with it: 20°C, HRP3 PWWP (1–110), 10 mM PBS pH 7.0, 50 mM NaCl, 2 mM β-mercaptoethanol. As for the experimental part: Isothermal titration calorimetry-based measurements were carried out at 20°C with a MicroCal iTC200 instrument. HRP3 PWWP (1–110) and various dsDNAs were dialysed overnight at 4°C in titration buffer containing 10 mM phosphate-buffered saline (PBS) at pH 7.0, 50 mM NaCl and 2 mM β-mercaptoethanol. Calorimetric titration data were fitted with the Origin software under the algorithm of one binding-site model.

A further data set relates to HepG2 cells. Put plainly: Fluorescence microscopy of GFP-HRP3 in HepG2 cells. The note with it: GFP fusion in HepG2 cells. The class given is cell-based, human. The protocol:
(§1) HepG2 (ATCC HB-8065) and HEK293T human embryonic kidney cells (ATCC #CRL-11268) were cultured in Dulbecco’s modified Eagle’s medium supplemented with 10% FBS. Stable overexpression of wild-type or mutant HRP3 in HepG2 cells was performed using FUGW lentiviral constructs expressing wild-type or mutant HRP3. Lentiviral vector infections ([47]) and plasmid transfections ([48]) were performed as previously described. Overexpression efficiency was determined by western blot.
The cells were first fixed with 4% paraformaldehyde in PBS buffer for 30 min at room temperature, and then washed with PBS buffer twice. The cells were permeabilized with 0.5% Triton X-100 in PBS buffer for 10 min followed with PBS washing twice. Then, the cells were incubated with1 μg/ml 4′,6-diamidino-2-phenylindole (DAPI) (C0060, Solarbio) in PBS for 5 min. After washing with PBS buffer twice, the cells were ready for microscopic observation. 3D structural illumination microscopy was performed using N-SIM Super-resolution Microscope System (Nikon) with an objective lens CFI Plan (Apochromat Lambda 40 ×, 0.95 numerical aperture; Nikon).

A further data set concerns chromatin of HepG2 cells. Put plainly: ChIP-Seq of GFP-HRP3 variants in HepG2 cells. It counts as cell-based, human. The protocol:
as §1
For chromatin immunoprecipitation, HepG2 cells were cross-linked with 1% formaldehyde at 37°C for 10 min and quenched with 0.125 M glycine for 5 min at room temperature. ChIP was performed using a ChIP assay kit (Millipore) according to the manufacturer’s protocol. Antibodies used for ChIP were GFP (gta-20, Chromo-Tek) and H3K36me3 (ab9050, abcam).
ChIP-Seq data were aligned to human genome hg19 using Bowtie 1.0 allowing one mismatch. Two biological replicates were performed and combined for the analysis. Analysis was performed using the Galaxy ([49]) and Cistrome ([50]) Platform and via custom R scripts for Bioconductor ([51]). Peak calling was performed using MACS2. Promoter definitions were downloaded from the UCSC browser ([52]). DNase I hypersensitivity and MNase-Seq data from ENCODE (GSM816662, GSM920557) ([53]) were used.

The next data set has as its system HRP3 PWWP aromatic cage. Put plainly: Crystal structure of apo-form HRP3 PWWP (8–94), MES in aromatic cage. Particulars: 0.95 Å. The class given is binding, human. As for the experimental part:
Crystallization was conducted using the sitting drop vapour diffusion method by mixing an equal volume of protein and well solution. Apo-form HRP3 PWWP (8–94) was crystallized with crystallization buffer containing 0.2 M ammonium sulfate, 0.1 M MES monohydrate, pH 6.5 and 30% w/v polyethylene glycol monomethyl ether 5000. The crystallization buffer containing 12% 2,3-butanediol was used as the cryoprotectant.
Datasets for all crystals were collected at the beamlines of the Shanghai Synchrotron Radiation Facility (SSRF). The datasets were processed using HKL2000 ([33]), and the structures were solved by molecular replacement using the programme PHENIX ([34]) with the HDGF2 PWWP domain (PDB number: 3EAE) as the search model. The initial model was rebuilt in COOT ([35]) and further refined by PHENIX.

A further data set has as its target T1, HRP3 PWWP Y22A (Homo sapiens, UniProt Q9Y3E1, Y22A).
T1 construct: using ^15N-labelled HRP3 PWWP (residues 1–110) dissolved in buffer; 6xHis-SUMO (cleaved yes); made in house; host or cells: Escherichia coli Rosetta (DE3)
Nature of the data set: NMR titration of H3K36me3 peptide with HRP3 PWWP Y22A. It counts as binding. The note with it: H3 residues 29–41, 20 mM PBS pH 6.9, 298 K. The protocol: (§2) All 2D ^1H-^15N HSQC NMR spectra were collected on the Bruker Avance III HD 600 MHz and 800 MHz spectrometers at 298 K. The NMR data were processed by NMRPipe ([39]) and analysed by KUJIRA ([40]) running with NMRview ([41]) softwares. Chemical shift perturbation experiments were carried out using ^15N-labelled HRP3 PWWP (residues 1–110) dissolved in buffer containing 20 mM PBS at pH 6.9, 20 mM NaCl and 2 mM DTT. A series of 2D ^1H-^15N HSQC spectra were recorded at HRP3 PWWP:H3K36me3/2/1/0 (residues 29–41) molar ratios of 1:0, 1:0.5, 1:1.5, 1:4, 1:6, 1:10, 1:15 and 1:20, respectively. The combined chemical shift perturbation was calculated using the following equation: Δδ = [(Δδ^1H)^2 + (Δδ^15N/5)^2]^1/2. Dissociation constants were calculated by fitting the data to a single-site ligand-binding model (SigmaPlot).

Another data set addresses T2, HRP3 PWWP E53A (Homo sapiens, UniProt Q9Y3E1, E53A).
T2 construct: using ^15N-labelled HRP3 PWWP (residues 1–110) dissolved in buffer; 6xHis-SUMO (cleaved yes); made in house; host or cells: Escherichia coli Rosetta (DE3)
Nature of the data set: NMR titration of H3K36me3 peptide with HRP3 PWWP E53A. It counts as binding. The note with it: H3 residues 29–41, 20 mM PBS pH 6.9, 298 K. As for the experimental part: as §2

In a further data set the target is T3, HRP3 PWWP F48A (Homo sapiens, UniProt Q9Y3E1, F48A).
T3 construct: using ^15N-labelled HRP3 PWWP (residues 1–110) dissolved in buffer; 6xHis-SUMO (cleaved yes); made in house; host or cells: Escherichia coli Rosetta (DE3)
T3 sequence (Q9Y3E1 1-110 F48A limits assumed): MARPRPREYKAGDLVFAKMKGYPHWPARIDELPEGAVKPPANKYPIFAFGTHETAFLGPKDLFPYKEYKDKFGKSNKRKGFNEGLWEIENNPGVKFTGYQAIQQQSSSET
Put plainly: NMR titration of H3K36me3 peptide with HRP3 PWWP F48A. It counts as binding. The note with it: H3 residues 29–41, 20 mM PBS pH 6.9, 298 K. The protocol: as §2

The target of the next data set is T4, HRP3 PWWP WT (Homo sapiens, UniProt Q9Y3E1).
T4 construct: using ^15N-labelled HRP3 PWWP (residues 1–110) dissolved in buffer; 6xHis-SUMO (cleaved yes); made in house; host or cells: Escherichia coli Rosetta (DE3)
T4 sequence (Q9Y3E1 1-110): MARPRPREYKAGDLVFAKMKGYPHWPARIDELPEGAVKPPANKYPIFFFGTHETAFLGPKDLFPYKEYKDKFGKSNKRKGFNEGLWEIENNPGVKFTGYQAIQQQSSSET
Put plainly: NMR titration of H3K36 peptides with wild-type HRP3 PWWP. The class given is binding. The note with it: 15N-labelled HRP3 PWWP (1–110) WT, H3 residues 29–41, 20 mM PBS pH 6.9, 20 mM NaCl, 2 mM DTT, 298 K. As for the experimental part:
as §2

T1 sequence (Q9Y3E1 1-110 Y22A): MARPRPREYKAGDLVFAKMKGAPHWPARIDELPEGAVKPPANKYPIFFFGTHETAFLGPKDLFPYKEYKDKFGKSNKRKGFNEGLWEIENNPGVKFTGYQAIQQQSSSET
T2 sequence (Q9Y3E1 1-110 E53A limits assumed): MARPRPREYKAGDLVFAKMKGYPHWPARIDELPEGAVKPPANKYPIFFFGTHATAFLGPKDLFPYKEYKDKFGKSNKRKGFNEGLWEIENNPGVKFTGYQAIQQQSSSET

In the data set with HRP3 PWWP [1] (3DNA), “5′-TATATATATATATATA-3′ (DNA, 5' {FAM}, backbone not given here; double-stranded DNA, FAM label in MST assay) [16-mer-TA, 16-bp TA-rich dsDNA]” came in with an average helical twist of 37.1 ° and an average propeller twist of −11.2 °. Also, in the data set on HRP3 PWWP [1] (Curve+ software), the “bending angle towards the minor groove per 6 bps” value is 2.9 °. Besides, in the data set on HRP3 PWWP [1] (crystal structure of complex), the “width of the minor groove, PWWP-binding region” value came out at 10.7 Å and the “width of the minor groove, PWWP-free region” value turned out to be 10.8 Å. For the same compound, the fold higher affinity with HRP3 PWWP [2] was 2–3 fold. Moreover, the “TA-rich preference by ITC” value in the data set on HRP3 PWWP [3] was “TA-rich preference was further verified by ITC-based measurements”.

As to “HRP3: wild-type human HRP3 as GFP fusion protein in HepG2 cells”, the “subcellular localisation” value in the data set with HepG2 cells is listed as “enriched in the nucleus”. In addition, the “DNase I hypersensitivity and nucleosome density of HRP3-enriched regions” value in the data set with chromatin of HepG2 cells (ChIP-Seq versus ENCODE DNase I / MNase-Seq data) is “increased DNase I hypersensitivity and reduced nucleosome density”. Moreover, the “chromatin binding / recruitment by ChIP-Seq” value with chromatin of HepG2 cells (ChIP-Seq with GFP antibody, HepG2, two biological replicates combined) is “enriched at promoters and gene bodies”. For the same compound, the “specific DNA-binding motif enrichment” value in the data set with chromatin of HepG2 cells (ChIP-Seq, HepG2) was “could not detect the enrichment of a specific DNA-binding motif”.

Take `O=S(=O)(O)CCN1CCOCC1` [MES]: the “position of bound molecule” value with HRP3 PWWP aromatic cage is listed as “positioned in the middle of the aromatic cage”.

Turning to `CC(C)[C@H](NC(=O)CNC(=O)CNC(=O)[C@@H](NC(=O)[C@H](C)NC(=O)[C@@H]1CCCN1C(=O)[C@H](C)N)[C@@H](C)O)C(=O)N[C@@H](CCCC[N+](C)(C)C)C(=O)N[C@@H](CCCCN)C(=O)N1CCC[C@H]1C(=O)N[C@@H](Cc1c[nH]cn1)C(=O)N[C@@H](CCCNC(=N)N)C(=O)N[C@@H](Cc1ccc(O)cc1)C(=O)O` [H3K36me3], the Kd on HRP3 PWWP Y22A was 21 ± 9 mM; at HRP3 PWWP E53A, 8 ± 1.9 mM; at HRP3 PWWP F48A, 9.4 ± 2.1 mM; at HRP3 PWWP WT, 1.4 ± 0.6 mM.
